Data taken from ChEMBL document CHEMBL1149597, “Structure-activity relationships of semisynthetic mumbaistatin analogs” (Bioorg Med Chem, 2007).
The source made the active and inactive calls. The calls are words filed in the database; no cut-off is given here.

Each compound was assayed against T1, Glucose-6-phosphate exchanger SLC37A4 (Homo sapiens) (UniProt O43826) (assay: (§1) Inhibition of glucose 6 phosphate translocase 1).
T1 sequence (whole entry): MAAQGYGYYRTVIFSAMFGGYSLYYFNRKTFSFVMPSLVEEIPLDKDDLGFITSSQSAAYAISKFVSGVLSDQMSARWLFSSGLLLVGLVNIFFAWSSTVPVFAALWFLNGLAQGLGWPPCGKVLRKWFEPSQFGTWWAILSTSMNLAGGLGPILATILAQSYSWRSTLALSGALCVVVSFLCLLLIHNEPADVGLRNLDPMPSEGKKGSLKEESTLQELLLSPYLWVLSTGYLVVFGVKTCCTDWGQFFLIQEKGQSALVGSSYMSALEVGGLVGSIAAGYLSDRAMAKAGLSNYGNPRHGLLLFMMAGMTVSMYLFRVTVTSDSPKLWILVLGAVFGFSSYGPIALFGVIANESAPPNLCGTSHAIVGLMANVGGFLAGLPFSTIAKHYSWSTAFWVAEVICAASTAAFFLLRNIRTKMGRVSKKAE

SMILES	Activity
Cc1c(C(=O)O)c(O)cc2c1C(=O)c1c(O)cccc1C2=O	inactive

Each compound was assayed against T2, Glucose-6-phosphate exchanger SLC37A4 (Homo sapiens, UniProt O43826) (assay: as §1).
T2 sequence (O43826 whole entry): T1 sequence (whole entry)

SMILES	IC50 [µM]
CCCCc1c(C(=O)O)c(O)cc2c1C(=O)c1c(O)cccc1C2=O	100
O=C(O)CC(O)CCC(=O)c1cccc(O)c1C(=O)c1c(C(=O)O)c(O)cc2c1C(=O)c1c(O)cccc1C2=O (centres undefined) [MUMBAISTATIN]	0.005
COc1cc2c(c(/C=C/c3ccccc3)c1C(=O)O)C(=O)c1c(O)cccc1C2=O	2.5
CC/C=C/c1c(C(=O)O)c(OC)cc2c1C(=O)c1c(O)cccc1C2=O	12.5
C=CCCOc1ccccc1/C=C/c1c(C(=O)O)c(OC)cc2c1C(=O)c1c(OC)cccc1C2=O	20
C=C(c1cccc(O)c1C(=O)O)c1c(O)cccc1C(CCCCC)OC (centres undefined)	50
COc1cc2c(c(Cc3ccccc3)c1C(=O)O)C(=O)c1c(O)cccc1C2=O	20
COc1cc2c(c(/C=C/c3cccc4ccccc34)c1C(=O)O)C(=O)c1c(O)cccc1C2=O	2.5
COc1cc2c(c(CSc3ccccc3)c1C(=O)O)C(=O)c1c(O)cccc1C2=O	50
O=C1c2cccc(O)c2C(=O)c2c1cc(O)c1c2CC(c2cccc3ccccc23)OC1=O (centres undefined)	5
CCCCCC/C=C/c1c(C(=O)O)c(OC)cc2c1C(=O)c1c(O)cccc1C2=O	50
CCC(C)CCc1c(C(=O)O)c(O)cc2c1C(=O)c1c(O)cccc1C2=O (centres undefined)	200

Each compound was assayed on Hepatocyte (assay: Inhibition of glucagon-stimulated glucose production in rat hepatocytes at 280 uM).
Type: functional

SMILES	inhibition at 280 µM [%]
COc1cc2c(c(/C=C/c3cccc4ccccc34)c1C(=O)O)C(=O)c1c(O)cccc1C2=O	40
